Measurements reported in patent publication US20250134995A1, “SAPONIN-BASED ADJUVANTS AND METHODS OF CHARACTERIZING SAME” (priority 2023, published 2025).
Read-outs that look alike come from different tables or passages of the source.

Experiments:
[1] = in vivo; cited from earlier work
[2] = in vitro, free QS-21; cited from earlier work

With `CC(C)CCC[C@@H](C)[C@H]1CC[C@H]2[C@@H]3CC=C4C[C@@H](O)CC[C@]4(C)[C@H]3CC[C@]12C` [cholesterol, cholesterol [1-2-3H (N)]] the elimination (after 168 h) was “lack of complete elimination”, the “distribution to the iliac LN compared to inguinal LN and popliteal LN” value (after QF injection) was “substantial” and the “plateau of relative activity in intestines, lungs, and bone marrow” value (both, CD-1 IGS, mouse, in vivo) was 5-20 % ID/g tissue. The “plateau of relative radioactivity in plasma and kidney” value (both, CD-1 IGS, mouse, in vivo) was 5%-20%, the “start of plateau of relative activity in testes, ovaries and uterus” value (both, CD-1 IGS, mouse, in vivo) was 24 h and the “time at which systemic levels reached a plateau” value (both, CD-1 IGS, mouse, in vivo) was “around 24 h”. For the same molecule, the “time from which cholesterol levels are significantly higher than saponin levels at the injection site” value (both, CD-1 IGS, mouse, in vivo) was 3 to 6 h, the “time to removal from the injection site” value (both, CD-1 IGS, mouse, in vivo) was ≤ 48 h and the “decline of counts at the injection site” value (compared to saponin counts) was “slower decline”. For the same molecule, the “early relative radioactivity in plasma and kidney” value (early timepoints, in contrast to saponins) was “lower relative radioactivity”, the activity in urine (mouse, in vivo) was “Barely detectable activity” and the “injected radioactive dose per gram tissue at the injection site and in the iliac LN” value (mouse, in vivo) was “high percentage”. For the same molecule, the “plateauing activity in spleen, heart, and brain” value (mouse, in vivo) was “lower levels”, the “relative activity in the liver” value (mouse, in vivo) was “low levels” and the “relative activity in the liver versus saponins” value (mouse, in vivo) was “slightly higher relative activity”. The “reproductive organ with the highest relative activity” value (mouse, in vivo) was “highest relative activity of cholesterol detected in the ovaries”.

For QS-21, the “pain at the injection site” value [1] is listed as “immediate pain at the injection site” and the hemolytic activity [2] is listed as “shows hemolytic activity”.

For saponins, the “effect of presence of SARS-COV-2 antigen on relative activity in urine and kidney” value (mouse, in vivo) was “increased relative activity”, the excretion pathway (mouse, in vivo) was “rapidly excreted via the kidneys into urine” and the “injected radioactive dose per gram tissue at the injection site and in the iliac LN” value (mouse, in vivo) was “high percentage”. The “level in bone marrow after the peak” value (mouse, in vivo) was “declined”, the “level in the QF and the iliac LN” value (mouse, in vivo) was “low levels” and the “relative activity in plasma, urine, and kidney after the peak” value (mouse, in vivo) was “rapid decline”. The “relative activity in the liver” value (mouse, in vivo) was “low levels”, the systemic accumulation (mouse, in vivo) was “do not accumulate systemically” and the “time of highest relative activity in testes, ovaries and uterus” value (mouse, in vivo) was 1 h. The “time of peak in bone marrow” value (mouse, in vivo) was 3 h and 6 h, the “time of peak relative activity in plasma, urine, and kidney” value (mouse, in vivo) was 1 to 3 h and the “time to near complete clearance (urine as major excretion pathway)” value (mouse, in vivo) was ≤ 7 days. The “time to removal from the injection site” value (mouse, in vivo) was ≤ 48 h.
